{"source": "paper PMC9578143", "about": "“Small-Molecule Ebselen Binds to YTHDF Proteins Interfering with the Recognition of N^6-Methyladenosine-Modified RNAs” (ACS Pharmacology & Translational Science, 2022)", "key": {"[1]": {"target": "T1, YTH domain of YTHDF1 / biotinylated RNA probe 5′-Bi-CCGAm6ACUGUC-3′ (Homo sapiens, UniProt Q9BYJ9)", "T1 construct": "The human YTHDF1 YTH domain (amino acids 365–554, PDB: 4RCJ); host or cells: E. coli BL21(DE3)", "T1 sequence (Q9BYJ9 365-554)": "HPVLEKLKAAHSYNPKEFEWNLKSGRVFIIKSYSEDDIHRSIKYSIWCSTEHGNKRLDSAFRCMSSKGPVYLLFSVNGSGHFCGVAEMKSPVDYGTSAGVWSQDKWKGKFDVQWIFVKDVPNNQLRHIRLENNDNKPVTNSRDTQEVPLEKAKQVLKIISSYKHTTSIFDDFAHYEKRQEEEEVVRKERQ", "experiment": "AlphaScreen competitive assay, saturation binding", "conditions": "50 nM RNA, 50 nM protein, compound 0–100 μM", "protocol": "The Amplified Luminescent Proximity Homogeneous Assay (ALPHA Assay) was performed in white 384-well Optiplates (PerkinElmer) in a final volume of 20 μL, and it was first optimized by titrating both the protein and the biotinylated RNA probe (5′-Bi-CCGAm6ACUGUC-3′, Dharmacon) to find the appropriate right protein/RNA ratio before the saturation of the detection signal. […] Anti-His acceptor beads (PerkinElmer) (20 μg/mL final concentration) and streptavidin donor beads (20 μg/mL final concentration) were added and the reaction was incubated in the dark at room temperature for 1 h to reach equilibrium. Light signals were detected with an Enspire Multimode Plate reader (PerkinElmer). […] The IC50 of ebselen was determined from the nonlinear regression fits of the data."}, "YTHDF1 in HEK293T cells": {"target": "T2, YTHDF1 in HEK293T cells (Homo sapiens, UniProt Q9BYJ9)", "T2 construct": "endogenous in cells; host or cells: HEK293T", "T2 sequence (Q9BYJ9 1-559)": "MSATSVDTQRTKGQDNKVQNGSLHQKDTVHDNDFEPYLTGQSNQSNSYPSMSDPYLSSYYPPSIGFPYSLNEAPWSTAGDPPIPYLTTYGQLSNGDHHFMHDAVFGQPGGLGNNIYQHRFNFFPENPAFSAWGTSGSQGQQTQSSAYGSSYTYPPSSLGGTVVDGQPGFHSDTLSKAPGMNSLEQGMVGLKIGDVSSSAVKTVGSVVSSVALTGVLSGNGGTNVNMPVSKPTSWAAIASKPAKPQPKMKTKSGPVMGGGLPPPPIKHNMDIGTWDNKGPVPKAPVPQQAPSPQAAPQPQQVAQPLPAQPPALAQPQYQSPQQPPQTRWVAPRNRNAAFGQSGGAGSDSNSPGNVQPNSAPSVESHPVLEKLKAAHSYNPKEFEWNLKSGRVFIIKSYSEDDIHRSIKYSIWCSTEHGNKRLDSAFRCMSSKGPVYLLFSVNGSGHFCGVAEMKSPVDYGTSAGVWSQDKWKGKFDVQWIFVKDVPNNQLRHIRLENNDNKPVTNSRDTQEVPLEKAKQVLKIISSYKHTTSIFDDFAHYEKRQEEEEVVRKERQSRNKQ", "experiment": "Cellular thermal shift assay (CETSA)", "type": "cell-based", "conditions": "50 μM, 3 h, versus DMSO, listed as Ebselen", "protocol": "HEK293T cells were seeded on 100 mm cell culture plate/s and allowed to adhere overnight. At 80% of confluency, cells were treated with 50 μM ebselen or DMSO as a control and incubated for 3 h at 37 °C in the CO2 incubator. Cells were centrifuged and resuspended in PBS and the protease inhibitor, at a concentration of (0.5–1) × 10^6 cells /100 μL of suspension. Lysates were divided into 9–10 aliquots of 100 μL into 0.2 mL microcentrifuge tubes and incubated at a temperature gradient on a PCR machine for 3 min. After incubation, lysates were frozen and thawed five times in dry ice and at 27 °C for 3 min each. All tubes were then centrifuged at 4 °C for 20 min at 12,000 rpm. Supernatants were then collected and transferred to clean tubes with a loading buffer 5×, heated for 10 min at 95 °C, and detected with Western Blot. The blot was then plotted with a YTHDF1 (Proteintech, 17479-1-AP) and actin (Cell Signaling, 12620S) primary antibody and subsequently with anti-Rabbit HRP (Santa Cruz, sc-2357) and anti-mouse HRP (Thermo Fisher, 61-6520). Chemiluminescent detection was performed using Amersham ECL Prime (GE Healthcare)."}, "PC-3 cells": {"system": "PC-3 cells", "experiment": "Cell viability assay (OZBlue)", "type": "cell-based", "conditions": "Homo sapiens", "protocol": "PC-3 cells were seeded and treated in 96 plates for 24, 48, and 72 h. Cell viability was assessed by adding to the cells 10% of the culture medium volume of the OZBlue reagent (OZ Biosciences). Cells were incubated at 37 °C for 1 h. Fluorescence was then determined (excitation 560 nm and emission 590 nm) by a Tecan microplate reader. Cell survival was calculated with respect to control (DMSO), and IC50 values were determined by fitting with GraphPad Prism software."}, "YTHDF1 domain": {"target": "T3, YTHDF1 domain (Homo sapiens, UniProt Q9BYJ9)", "T3 construct": "The human YTHDF1 YTH domain (amino acids 365–554, PDB: 4RCJ); host or cells: E. coli BL21(DE3)", "T3 sequence (Q9BYJ9 365-554)": "T1 sequence (Q9BYJ9 365-554)", "experiment": "High-throughput screen, tryptophan quenching, Z-score", "type": "binding", "conditions": "5 μM protein, compounds at 10 μM", "protocol": "A Z factor of 0.53 was obtained. The high-throughput screen was performed by using an automatic liquid handling (Freedom EVO, Tecan), filling black 384-well plates with 15 μL of 5 μM protein in 20 mM Tris (pH 7.5), 150 mM NaCl, and 10% glycerol, and then by adding the library of compounds at a final concentration of 10 μM. Fluorescence was measured immediately after compound addition. The library used was the Spectrum Collection (Microsource Discovery System, Inc.), composed of 2560 compounds, of whom 60% are clinically used drugs, 25% natural products, and 15% other bioactive molecules. The Z-score was calculated as (X – μp)/σp, where X is the fluorescence intensity of the protein. Candidate molecules were considered all of the ones that were under the threshold of Z = −3, while all of the ones over that value were discarded."}, "YTHDF1 YTH domain": {"target": "T4, YTHDF1 YTH domain (Homo sapiens, UniProt Q9BYJ9)", "T4 construct": "The human YTHDF1 YTH domain (amino acids 365–554, PDB: 4RCJ); host or cells: E. coli BL21(DE3)", "T4 sequence (Q9BYJ9 365-554)": "T1 sequence (Q9BYJ9 365-554)", "experiment": "NMR titration (2D 1H-15N HSQC) in reducing conditions", "type": "binding", "conditions": "10 mM β-mercaptoethanol, 100 μM protein", "protocol": "To further investigate the ligand–protein interaction in reversible conditions, the resonances of the YTHDF1 YTH domain were assigned. The protein sample was titrated with ebselen, in the presence of β-mercaptoethanol (10 mM) as a reducing agent, to prevent the covalent bond formation. The titration was monitored by NMR to map at atomic resolution the ligand-binding site on the protein surface. Increasing amounts of the ligand (12.5, 25, 50, 100, and 200 μM) were added to the protein solution during the NMR titration, and 2D ^1H–^15N heteronuclear single quantum coherence (HSQC) spectra were acquired.\nThe interaction of the protein with ebselen was investigated by solution NMR. 2D ^1H–^15N HSQC spectra were acquired on a spectrometer operating at 950 MHz and 298 K, on the free protein (100 μM in 20 mM Tris buffer, pH 7.5, 150 mM NaCl, 250 mM LiCl, 10 mM 2-mercaptoethanol, 0.5 mM EDTA, 0.1% NaN3, and protease inhibitors) and after the addition of increasing aliquots of a solution of the ligand in DMSO-d6 to reach the final concentrations of 12.5, 25, 50, 100, and 200 μM."}}}
{"smiles": "O=c1c2ccccc2[se]n1-c1ccccc1", "note": "[Compound 1, 2-phenyl-1,2-benzisoselenazol-3(2H)-one]", "values": [{"measurement": "IC50", "setting": "[1]", "result": "3.565 ± 0.009", "unit": "µM"}, {"measurement": "ΔTagg of YTHDF1 (CETSA)", "setting": "YTHDF1 in HEK293T cells", "result": 3.48, "unit": "°C"}, {"measurement": "IC50", "setting": "PC-3 cells; 24 h", "result": 58.8, "unit": "µM"}, {"measurement": "IC50", "setting": "PC-3 cells; 48 h", "result": 49.6, "unit": "µM"}, {"measurement": "IC50", "setting": "PC-3 cells; 72 h", "result": 26.8, "unit": "µM"}, {"measurement": "Mean(FI.z-score)", "setting": "YTHDF1 domain", "result": -3.819}, {"measurement": "Affinity constant judged from NMR titration (in words)", "setting": "YTHDF1 YTH domain", "result": "low micromolar range"}]}
